How the values were obtained:
[1] = test system: HCT-116 cells; test: Inhibition of cell growth, MTT tetrazolium salt assay; format: cell-based; conditions: Homo sapiens, 144 h, four to six days incubation; for IC50: first value of the cell, read-out: HCT116 IC50; for IC90: second value of the cell, 90% inhibition of growth, read-out: HCT116 IC90
Description: Inhibition of Cell Growth: Assessment of Cytotoxicity:
Inhibition of cell growth was measured using the tetrazolium salt assay, which is based on the ability of viable cells to reduce 3-(4,5-dimethylthiazol-2-yl)-2,5-[2H]-diphenyltetrazolium bromide (MTT) to formazan (Mosmann, T. J. Immunol. Methods 1983, 65, 55-63). The water-insoluble purple formazan product was then detected spectrophotometrically. HCT-116 cells were grown in 96-well plates. Cells were plated in the appropriate medium at a volume of 135 μl/well in either McCoy's 5A Medium. Plates were incubated for 4 hours before addition of inhibitor compounds. Different concentrations of inhibitor compounds were added in 0.5% (v/v) dimethylsulfoxide (15 μL/well), and cells were incubated at 37° C. (5% CO2) for four to six days (depending on cell type). At the end of the incubation, MTT was added to a final concentration of 0.2 mg/mL, and cells were incubated for 4 hours more at 37° C. After centrifugation of the plates and removal of medium, the absorbance of the formazan (solubilized in dimethylsulfoxide) was measured at 540 nm. The concentration of inhibitor compound causing 50% (IC50) or 90% (IC90) inhibition of growth was determined from the linear portion of a semi-log plot of inhibitor concentration versus percentage inhibition. All results were compared to control cells treated only with 0.5% (v/v) dimethylsulfoxide.

[2] = molecular target: T1, human CDK4 / truncated (1-264) cyclin D3 complex (Homo sapiens, UniProt P11802); test: Inhibition of CDK4/Cyclin D retinoblastoma kinase activity; format: biochemical; conditions: Rb fragment substrate, enzyme complex 5 nM
T1 construct: made in house; host or cells: insect cells (baculovirus co-infection)
T1 sequence (P11802 whole entry, the tested form may be a part): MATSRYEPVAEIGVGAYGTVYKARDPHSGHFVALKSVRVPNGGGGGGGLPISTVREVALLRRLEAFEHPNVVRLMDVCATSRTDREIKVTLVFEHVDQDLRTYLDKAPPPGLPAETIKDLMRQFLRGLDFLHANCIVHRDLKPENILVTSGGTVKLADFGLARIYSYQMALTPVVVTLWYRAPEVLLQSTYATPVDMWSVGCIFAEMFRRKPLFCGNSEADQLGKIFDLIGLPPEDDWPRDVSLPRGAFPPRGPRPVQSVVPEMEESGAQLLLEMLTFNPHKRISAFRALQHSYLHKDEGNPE
T1 sequence (P30281 1-264 partner limits assumed): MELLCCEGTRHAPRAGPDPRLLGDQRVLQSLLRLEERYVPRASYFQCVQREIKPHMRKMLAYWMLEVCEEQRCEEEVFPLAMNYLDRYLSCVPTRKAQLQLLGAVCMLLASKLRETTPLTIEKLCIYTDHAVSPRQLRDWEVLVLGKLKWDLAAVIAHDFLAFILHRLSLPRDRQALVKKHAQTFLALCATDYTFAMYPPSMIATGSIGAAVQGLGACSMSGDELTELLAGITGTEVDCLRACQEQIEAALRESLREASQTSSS
Description: Inhibition of CDK4/Cyclin D Retinoblastoma Kinase Activity:
A complex of human CDK4 and genetically truncated (1-264) cyclin D3 was purified using traditional biochemical chromatographic techniques from insect cells that had been co-infected with the corresponding baculovirus expression vectors (see e.g., Meijer, L.; Kim, S.-H. In Methods Enzymol. 1997, 283, 113-128). The enzyme complex (5 nM) was assayed with 0.3-0.5 μg of purified recombinant retinoblastoma protein fragment (Rb) as a substrate. The engineered Rb fragment (residues 386-928 of the native retinoblastoma protein; 62.3 kDa) contains the majority of the phosphorylation sites found in the native 106-kDa protein, as well as a tag of six histidine residues for ease of purification. Phosphorylated Rb substrate was captured by microfiltration on a nitrocellulose membrane and quantified using a phosphorimager as described above. For measurement of tight-binding inhibitors, the assay duration was extended to 60 minutes, during which the time dependence of product formation was linear and initial rate conditions were met.

[3] = molecular target: T2, CDK2 / proteolyzed cyclin A complex (Homo sapiens, UniProt P24941); test: Inhibition of CDK2/Cyclin A retinoblastoma kinase activity; format: biochemical; conditions: Rb fragment substrate, CDK2 at 10 nM or 19 nM
T2 construct: made in house; host or cells: CDK2: insect cells (baculovirus); cyclin A: E. coli, then limited proteolysis
Description: Inhibition of CDK2/Cyclin A Retinoblastoma Kinase Activity:
CDK2 was purified using published methodology (Rosenblatt, J.; De Bondt, H.; Jancarik, J.; Morgan, D. O.; Kim, S. H. J. Mol. Biol. 1993, 230, 1317-1319) from insect cells that had been infected with a baculovirus expression vector. Cyclin A was purified from E. coli cells expressing full-length recombinant cyclin A, and a truncated cyclin A construct was generated by limited proteolysis and purified as described previously (Jeffrey, P. D.; Russo, A. A.; Polyak, K.; Gibbs, E.; Hurwitz, J.; Massague, J.; Pavletich, N. P. Nature 1995, 376, 313-320.). A complex of CDK2 and proteolyzed cyclin A was prepared and purified by gel filtration. The substrate for this assay was the same Rb substrate fragment used for the CDK4 assays, and the methodology of the CDK2/delta cyclin A and the CDK4/delta cyclin D3 assays was essentially the same, except that CDK2 was present at 10 nM or 19 nM. The duration of the assay was 60 or 75 minutes, during which the time dependence of product formation was linear and initial rate conditions were met.

SMILES	IC50 [1] [nM]	IC90 [1] [nM]	Ki [2] [nM]	Ki [3] [nM]
CN1CCC[C@H]1CNC(=O)c1ccc(Nc2nc(N)c(C(=O)c3c(F)cccc3F)s2)nc1 [Example 1A]	7	170	0.77	7.3
CN(C)C1(CNC(=O)c2ccc(Nc3nc(N)c(C(=O)c4c(F)cccc4F)s3)nc2)CCC1 [Example 1B, 6-[4-Amino-5-(2,6-difluoro-benzoyl)-thiazol-2-ylamino]-N-(1-dimethylaminocyclobutylmethyl)-nicotinamide]	5.8	20	2.7	39
Nc1nc(Nc2ccc(C(=O)NCc3ccccn3)cn2)sc1C(=O)c1c(F)cccc1F [Example 1C, 6-[4-Amino-5-(2,6-difluoro-benzoyl)-thiazol-2-ylamino]-N-pyridin-2-ylmethyl-nicotinamide]	79	210	12	7.2
Nc1nc(Nc2ccc(C(=O)NCc3cccnc3)cn2)sc1C(=O)c1c(F)cccc1F [Example 1D, 6-[4-Amino-5-(2,6-difluoro-benzoyl)-thiazol-2-ylamino]-N-pyridin-3-ylmethyl-nicotinamide]	410	> 5000	6.6	5.7
Nc1nc(Nc2ccc(C(=O)Nc3ccccc3)cn2)sc1C(=O)c1c(F)cccc1F [Example 1E, 6-[4-Amino-5-(2,6-difluoro-benzoyl)-thiazol-2-ylamino]-N-phenyl-nicotinamide]	180	400	18	17
Nc1nc(Nc2ccc(C(=O)NCCN3CCCCC3)cn2)sc1C(=O)c1c(F)cccc1F [Example 1F, 6-[4-Amino-5-(2,6-difluoro-benzoyl)-thiazol-2-ylamino]-N-(2-piperidin-1-yl-ethyl)-nicotinamide]	17	40	4.3	18
Nc1nc(Nc2ccc(C(=O)Nc3ccccn3)cn2)sc1C(=O)c1c(F)cccc1F [Example 1G, 6-[4-Amino-5-(2,6-difluoro-benzoyl)-thiazol-2-ylamino]-N-pyridin-2-yl-nicotinamide]	170	36000	35	18
CCN1CCCC1CNC(=O)c1ccc(Nc2nc(N)c(C(=O)c3c(F)cccc3F)s2)nc1 (centres unmarked) [Example 1H, 6-[4-Amino-5-(2,6-difluoro-benzoyl)-thiazol-2-ylamino]-N-(1-ethyl-pyrrolidin-2-ylmethyl)-nicotinamide]	32	60	7.1	43
C[C@H](CN(C)C)NC(=O)c1ccc(Nc2nc(N)c(C(=O)c3c(F)cccc3F)s2)nc1 [Example 1I, 6-[4-Amino-5-(2,6-difluoro-benzoyl)-thiazol-2-ylamino]-N-(2-dimethylamino-1R-methyl-ethyl)-nicotinamide]	2.6	5.7	0.61	4.4
Nc1nc(Nc2ccc(C(=O)NCCN3CCCC3)cn2)sc1C(=O)c1c(F)cccc1F [Example 1J, 6-[4-Amino-5-(2,6-difluoro-benzoyl)-thiazol-2-ylamino]-N-(2-pyrrolidin-1-yl-ethyl)-nicotinamide]	17	50	2.2	11
CN(C)CCNC(=O)c1ccc(Nc2nc(N)c(C(=O)c3c(F)cccc3F)s2)nc1 [Example 1K, 6-[4-Amino-5-(2,6-difluoro-benzoyl)-thiazol-2-ylamino]-N-(2-dimethylamino-ethyl)-nicotinamide]	8.8	21	1.4	9.8
CN(C)C(C)(C)CNC(=O)c1ccc(Nc2nc(N)c(C(=O)c3c(F)cccc3F)s2)nc1 [Example 1L]	2.5	8.5	1.3	8.6
CNC(C)(C)CNC(=O)c1ccc(Nc2nc(N)c(C(=O)c3c(F)cccc3F)s2)nc1 [Example 1M]	70	250	2.3	35
CN1CCN(c2ccc(Nc3nc(N)c(C(=O)c4c(F)cccc4F)s3)nc2)CC1 [Example 2A, {4-Amino-2-[5-(4-methyl-piperazin-1-yl)-pyridin-2-ylamino]-thiazol-5-yl}-(2,6-difluoro-phenyl)-methanone]	70	180	1.1	32
CNCCNC(=O)c1ccc(Nc2nc(N)c(C(=O)c3c(F)cccc3F)s2)nc1 [Example 3A]	210	700	3.3	21
CN1CCC[C@H]1CNC(=O)c1ccc(Nc2nc(N)c(C(=O)c3c(F)cccc3F)s2)cn1 [Example C1A, 5-[4-Amino-5-(2,6-difluoro-benzoyl)-thiazol-2-ylamino]-pyridine-2-carboxylic acid (1-methyl-pyrrolidin-2S-ylmethyl)-amide, reference compound]	230	650	37	320
C[C@H](CN(C)C)NC(=O)c1ccc(Nc2nc(N)c(C(=O)c3c(F)cccc3F)s2)cn1 [Example C1B, 5-[4-Amino-5-(2,6-difluoro-benzoyl)-thiazol-2-ylamino]-pyridine-2-carboxylic Acid (2-Dimethylamino-1R-methyl-ethyl)-amide, reference compound]	120	280	120	400

From patent US20050176773A1, “Antiproliferative 2-(heteroaryl)-aminothiazole compounds and pharmaceutical compositions, and method for their use” (AGOURON PHARMACEUTICALS, INC., priority 2003, published 2005)
